In US9751869B2, “LXR modulators” (BRISTOL-MYERS SQUIBB COMPANY, priority 2013, dated 2017):

Target: T1, LXRβ (Homo sapiens, UniProt P55055)
T1 construct: Co-transfection expression plasmids, comprising full-length LXRα (pCMX-h LXRα or LXRβ (pCMX-hLXRβ)); expressed in transfected cells; host or cells: CV-1 African green monkey kidney cells, transient transfection with pCMX-hLXRβ
T1 sequence (P55055 1-460): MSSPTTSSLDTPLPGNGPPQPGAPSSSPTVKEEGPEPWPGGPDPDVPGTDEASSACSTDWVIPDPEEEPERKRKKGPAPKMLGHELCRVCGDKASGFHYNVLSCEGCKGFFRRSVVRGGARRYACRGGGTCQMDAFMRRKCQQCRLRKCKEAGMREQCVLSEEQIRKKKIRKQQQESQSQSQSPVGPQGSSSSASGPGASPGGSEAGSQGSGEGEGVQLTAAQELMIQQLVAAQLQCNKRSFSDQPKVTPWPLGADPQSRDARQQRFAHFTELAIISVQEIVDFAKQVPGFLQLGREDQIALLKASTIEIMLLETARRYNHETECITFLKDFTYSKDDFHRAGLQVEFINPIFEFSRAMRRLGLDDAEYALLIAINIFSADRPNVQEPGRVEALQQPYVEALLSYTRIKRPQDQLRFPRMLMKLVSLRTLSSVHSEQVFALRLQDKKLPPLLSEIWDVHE
T1 sequence (P19793 1-462 partner): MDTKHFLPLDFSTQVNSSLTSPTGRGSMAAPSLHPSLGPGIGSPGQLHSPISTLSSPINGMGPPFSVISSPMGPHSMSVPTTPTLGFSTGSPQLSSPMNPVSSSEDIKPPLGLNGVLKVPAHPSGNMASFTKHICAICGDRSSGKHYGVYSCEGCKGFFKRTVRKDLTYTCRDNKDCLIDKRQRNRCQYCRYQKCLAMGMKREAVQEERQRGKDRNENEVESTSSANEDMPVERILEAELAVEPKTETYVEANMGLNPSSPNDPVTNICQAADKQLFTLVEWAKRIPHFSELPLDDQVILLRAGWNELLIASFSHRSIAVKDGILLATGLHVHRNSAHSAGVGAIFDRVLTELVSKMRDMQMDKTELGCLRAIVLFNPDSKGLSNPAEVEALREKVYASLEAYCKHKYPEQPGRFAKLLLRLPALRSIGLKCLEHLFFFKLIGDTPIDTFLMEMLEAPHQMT
Assay: LXR/LXRE co-transfection assay (luciferase reporter) in CV-1 cells, LXRβ
Format: cell-based
Details: for EC50: CV-1 cells transfected with pCMX-hLXRβ and LXREx1-Tk-Luciferase, 20 hours incubation, read-out: LXRbeta agonism EC50; for Emax: read-out: LXRbeta % EFFICACY
How it was run: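 Luciferase read-out after 20 h compound treatment at 37 °C of CV-1 cells carrying transfected hLXRβ plus one-copy LXRE reporter, endogenous RXR partnering. Sigmoidal fit of 10-point half-log curves (4 wells each) gave EC50; % efficacy versus maximal response of the propionamide reference agonist.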

[1] = CV-1 cells, relative to maximum response of high control N-(3-((4-fluorophenyl)-(naphthalene-2-sulfonyl)amino)propyl)-2,2-dimethylpropionamide

EC50	Emax [1]	LXRbeta % EFFICACY [1]	SMILES
165 nM	56%		Cc1cc(C(F)(F)F)n(-c2ccc(-c3cc(F)c(CO)c(S(C)(=O)=O)c3)cc2-c2nc(C)oc2-c2ccc(OC(F)F)cc2)n1 [Example 391, (3′-(5-(4-(difluoromethoxy)phenyl)-2-methyloxazol-4-yl)-3-fluoro-4′-(3-methyl-5-(trifluoromethyl)-1H-pyrazol-1-yl)-5-(methylsulfonyl)biphenyl-4-yl)methanol]
54 nM		56%	Cc1nc(-c2ccc3c(c2)OC(F)(F)O3)c(-c2cc(-c3cc(F)c(CO)c(S(C)(=O)=O)c3)ccc2-c2cc(C(C)O)nn2C)o1 (stereo not drawn) [Example 104, 1-(5-(3-(4-(2,2-difluorobenzo[d][1,3]dioxol-5-yl)-2-methyloxazol-5-yl)-3′-fluoro-4′-(hydroxymethyl)-5′-(methylsulfonyl)-[1,1′-biphenyl]-4-yl)-1-methyl-1H-pyrazol-3-yl)ethanol]
32 nM	101%		Cc1cc(C(F)(F)F)nn1-c1ccc(-c2cc(F)c(CO)c(S(C)(=O)=O)c2)cc1-n1nncc1-c1ccc(OC(F)(F)F)cc1 [Example 301, [3-fluoro-5-(methylsulfonyl)-4′-[5-methyl-3-(trifluoromethyl)-1H-pyrazol-1-yl]-3′-(5-{4-[(trifluoromethyl)oxy]phenyl}-1H-1,2,3-triazol-1-yl)biphenyl-4-yl]methanol]
47 nM	52%		Cc1nc(-c2ccc(OC(F)F)c(F)c2)c(-c2cc(-c3cc(F)c(CO)c(S(C)(=O)=O)c3)ccc2-c2cc(C(F)(F)C(N)=O)nn2C)o1 [Example 71, 2-(5-(3-(4-(4-(difluoromethoxy)-3-fluorophenyl)-2-methyloxazol-5-yl)-fluoro-4′-(hydroxymethyl)-5′-(methylsulfonyl)biphenyl-4-yl)-1-methyl-1H-pyrazol-3-yl)-2,2-difluoroacetamide]
30 nM	86%		Cc1nc(-c2ccc(OC(F)F)c(F)c2)c(-c2cc(-c3cc(F)c(CO)c(S(C)(=O)=O)c3)ccc2-c2cc(C(F)(F)CO)nn2C)o1 [Example 77, 2-(5-(3-(4-(4-(difluoromethoxy)-3-fluorophenyl)-2-methyloxazol-5-yl)-3′-fluoro-4′-(hydroxymethyl)-5′-(methylsulfonyl)biphenyl-4-yl)-1-methyl-1H-pyrazol-3-yl)-2,2-difluoroethanol]
12 nM	71%		Cc1nc(-c2cc(-c3ccc(CO)c(S(C)(=O)=O)c3)ccc2-n2nc(C(F)(F)F)cc2C)c(-c2ccc(OC(F)F)cc2)o1 [Example 392, (3′-(5-(4-(difluoromethoxy)phenyl)-2-methyloxazol-4-yl)-4′-(5-methyl-3-(trifluoromethyl)-1H-pyrazol-1-yl)-3-(methylsulfonyl)biphenyl-4-yl)methanol]
9 nM	78%		Cc1nc(-c2cc(-c3cccc(S(C)(=O)=O)c3)ccc2-n2nc(C(F)(F)F)cc2C)c(-c2ccc3c(c2)OC(F)(F)O3)o1 [Example 388, 5-(2,2-difluorobenzo[d][1,3]dioxol-5-yl)-2-methyl-4-(4-(5-methyl-3-(trifluoromethyl)-1H-pyrazol-1-yl)-3′-(methylsulfonyl)biphenyl-3-yl)oxazole]
71 nM	63%		Cc1nc(-c2ccc(Cl)c(OC(F)F)c2)c(-c2cc(-c3cc(F)c(CO)c(S(C)(=O)=O)c3)ccc2-n2ccc(C(F)(F)F)n2)o1 [Example 356, (3′-(4-(4-chloro-3-(difluoromethoxy)phenyl)-2-methyloxazol-5-yl)-3-fluoro-5-(methylsulfonyl)-4′-(3-(trifluoromethyl)-1H-pyrazol-1-yl)biphenyl-4-yl)methanol]
432 nM	46%		Cc1nc(-c2ccc(OC(F)(F)F)cc2)c(-c2cc(-c3cccc(C(C)(C)C#N)c3)ccc2-n2ccc(C(F)(F)F)n2)o1 [Example 342, 2-methyl-2-(3′-(2-methyl-4-(4-(trifluoromethoxy)phenyl)oxazol-5-yl)-4′-(3-(trifluoromethyl)-1H-pyrazol-1-yl)biphenyl-3-yl) propanenitrile]
200 nM	60%		CC(C)c1nc(-c2cc(-c3cccc(S(C)(=O)=O)c3)ccc2-n2ccc(C(F)(F)F)n2)c(-c2ccc(OC(F)(F)F)cc2)o1 [Example 399, 2-isopropyl-4-(3′-(methylsulfonyl)-4-(3-(trifluoromethyl)-1H-pyrazol-1-yl)biphenyl-3-yl)-5-(4-(trifluoromethoxy)phenyl)oxazole]
14 nM	76%		Cc1nc(-c2cc(F)c(OC(F)F)c(F)c2)c(-c2cc(-c3cc(F)c(CO)c(S(C)(=O)=O)c3)ccc2-n2ccc(C(F)(F)F)n2)o1 [Example 352, (3′-(4-(4-(difluoromethoxy)-3,5-difluorophenyl)-2-methyloxazol-5-yl)-3-fluoro-5-(methylsulfonyl)-4′-(3-(trifluoromethyl)-1H-pyrazol-1-yl)biphenyl-4-yl)methanol]
279 nM	26%		Cc1nc(-c2ccc3c(c2)OC(F)(F)O3)c(-c2cc(-c3cc(F)c(CO)c(S(C)(=O)=O)c3)ccc2-c2cc(CO)nn2C)o1 [Example 99, (5-(3-(4-(2,2-difluorobenzo[d][1,3]dioxol-5-yl)-2-methyloxazol-5-yl)-3′-fluoro-4′-(hydroxymethyl)-5′-(methylsulfonyl)-[1,1′-biphenyl]-4-yl)-1-methyl-1H-pyrazol-3-yl)methanol]
279 nM	72%		CC(C)c1nc(-c2ccc(OC(F)(F)F)cc2)c(-c2cc(-c3cccc(S(C)(=O)=O)c3)ccc2-n2ccc(C(F)(F)F)n2)o1 [Example 340, 2-isopropyl-5-(3′-(methylsulfonyl)-4-(3-(trifluoromethyl)-1H-pyrazol-1-yl)biphenyl-3-yl)-4-(4-(trifluoromethoxy)phenyl)oxazole]
30 nM	53%		Cc1nc(-c2ccc(OC(F)F)cc2)c(-c2cc(-c3cccc(S(C)(=O)=O)c3)ccc2-n2ccc(C(F)(F)F)n2)o1 [Example 435, 4-(4-(difluoromethoxy)phenyl)-2-methyl-5-(3′-(methylsulfonyl)-4-(3-(trifluoromethyl)-1H-pyrazol-1-yl)-[1,1′-biphenyl]-3-yl)oxazole]
568 nM	50%		Cn1nc(C(F)(F)C(C)(C)O)cc1-c1ccc(-c2cccc(S(C)(=O)=O)c2)cc1-n1nncc1-c1ccc(Cl)cc1 [Example 31, 1-(5-(3-(5-(4-chlorophenyl)-1H-1,2,3-triazol-1-yl)-3′-(methylsulfonyl)-[1,1′-biphenyl]-4-yl)-1-methyl-1H-pyrazol-3-yl)-1,1-difluoro-2-methylpropan-2-ol]
120 nM	68%		Cc1nc(-c2ccc(OC(F)(F)F)cc2)c(-c2cc(-c3cccc(S(C)(=O)=O)c3)ccc2-n2ccc(C(F)(F)F)n2)o1 [Example 309, 2-methyl-5-(3′-(methylsulfonyl)-4-(3-(trifluoromethyl)-1H-pyrazol-1-yl)-[1,1′-biphenyl]-3-yl)-4-(4-(trifluoromethoxy)phenyl)oxazole]
348 nM	60%		Cc1nc(-c2ccc(OC(F)(F)F)cc2)c(-c2cc(-c3cccc(C(C)(C)C#N)c3)ccc2-n2cc(Cl)c(C(F)(F)F)n2)o1 [Example 429, 2-(4′-(4-chloro-3-(trifluoromethyl)-1H-pyrazol-1-yl)-3′-(2-methyl-4-(4-(trifluoromethoxy)phenyl)oxazol-5-yl)-[1,1′-biphenyl]-3-yl)-2-methylpropanenitrile]
105 nM	30%		Cc1nc(-c2ccc3c(c2)OC(F)(F)O3)c(-c2cc(-c3cc(F)c(CO)c(S(C)(=O)=O)c3)ccc2-n2ccc(C(C)(C)O)n2)o1 [Example 358, 2-(1-(3-(4-(2,2-difluorobenzo[d][1,3]dioxol-5-yl)-2-methyloxazol-5-yl)-3′-fluoro-4′-(hydroxymethyl)-5′-(methylsulfonyl)-[1,1′-biphenyl]-4-yl)-1H-pyrazol-3-yl)propan-2-ol]
